According to PMC10675646 (Viruses, 2023):
Where a SMILES comes first, the peptide text is derived from it. The star is where a group is joined. 5FAM = O=C1OC2(c3ccc(O)cc3Oc3cc(O)ccc32)c2ccc(C(=O)*)cc21; Ahx = NCCCCCC(=O)O

Target: T1, 6xHis-SUMO-TRAF2 (residues 315–501) TRAF-C domain (Homo sapiens, UniProt Q12933)
T1 sequence (Q12933 315-501): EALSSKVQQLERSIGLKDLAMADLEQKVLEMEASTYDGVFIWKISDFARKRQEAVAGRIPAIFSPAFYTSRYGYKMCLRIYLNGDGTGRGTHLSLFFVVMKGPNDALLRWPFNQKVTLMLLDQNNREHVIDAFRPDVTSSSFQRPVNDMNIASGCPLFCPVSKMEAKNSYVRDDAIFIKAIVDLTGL
Test: Fluorescence polarization (FP) binding assay, TRAF2 TRAF-C domain
Details: summary range stated for TRAF2 and TRAF3 TRAF-C together, read-out: Binding affinities between the PIQAS peptide and SUMO-TRAF-C proteins (range)

## CC[C@H](C)[C@H](NC(=O)[C@@H]1CCCN1C(=O)CCCCCNC(=O)c1ccc2c(c1)C(=O)OC21c2ccc(O)cc2Oc2cc(O)ccc21)C(=O)N[C@@H](CCC(N)=O)C(=O)N[C@@H](C)C(=O)N[C@@H](CO)C(N)=O [PIQAS peptide] ({5FAM-Ahx}-PIQAS-NH2)
  Kd: 150 to 200 µM
